# According to ChEMBL document CHEMBL1151893, “Synthesis of analogs of forodesine HCl, a human purine nucleoside phosphorylase inhibitor-Part I” (Bioorg Med Chem Lett, 2009):
# Biological target: T1, Purine nucleoside phosphorylase (Homo sapiens, UniProt P00491)
# T1 sequence (P00491 whole entry): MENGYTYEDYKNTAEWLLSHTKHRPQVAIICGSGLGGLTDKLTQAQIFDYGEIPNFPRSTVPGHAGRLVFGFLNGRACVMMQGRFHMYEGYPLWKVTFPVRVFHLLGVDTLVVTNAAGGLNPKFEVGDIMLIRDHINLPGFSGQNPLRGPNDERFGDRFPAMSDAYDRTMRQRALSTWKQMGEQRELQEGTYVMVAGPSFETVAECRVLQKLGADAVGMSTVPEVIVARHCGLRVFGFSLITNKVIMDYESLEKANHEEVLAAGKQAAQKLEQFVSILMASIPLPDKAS
# Assay: Inhibition of human purine nucleoside phosphorylase
row,IC50 [nM],Compound
1,100,O=c1[nH]cnc2c([C@@]3(CO)NC[C@H](O)[C@@H]3O)c[nH]c12
2,100,O=C(O)c1[nH]c2c(=O)[nH]cnc2c1[C@@H]1N[C@H](CO)[C@@H](O)[C@H]1O
3,100,O=c1[nH]cnc2cc([C@@H]3N[C@H](CO)[C@@H](O)[C@H]3O)[nH]c12
